Source: ChEMBL document CHEMBL3885861, “Open TG-GATES”
Several values for one entry are separate records, joined by “and”; a condition that tells them apart may be missing. Identical values can stand only once.

Organism: Rattus norvegicus
Assay: Open TG-GATES - Regimen: Single
Assay type: toxicity, organism-based, Sprague-Dawley
Parameters: regimen Single, gender Male, age 6 weeks
Settings: in vivo, po, route gavage; for LIVER: tissue Liver
[1] = 0 mg/kg, 24 h, tissue Plasma, dose level Control
[2] = 1 mg/kg, 3 h, tissue Blood, dose level Low
[3] = 1 mg/kg, 3 h, tissue Kidney, dose level Low
[4] = 1 mg/kg, 3 h, tissue Plasma, dose level Low
[5] = 1 mg/kg, 6 h, tissue Blood, dose level Low

In the case of COc1ccc2c(c1)c(CC(=O)O)c(C)n2C(=O)c1ccc(Cl)cc1 [INDOMETHACIN], the LIVER (0 mg/kg, 24 h, dose level Control) is reported as 10.4 g and 11.1 g, the A/G [1] is reported as 2.1 and 1.6 and the ALP [1] is reported as 1109.6 IU/L and 886.6 IU/L. For the same compound, the ALT [1] was 39.6 IU/L and 36.4 IU/L, the AST [1] was 68 IU/L and 72.6 IU/L and the BUN [1] was 18 mg/dL and 13.8 mg/dL. For the same compound, the CRE [1] was 0.5 mg/dL and 0.4 mg/dL, the Ca [1] was 10.5 mg/dL and 10.7 mg/dL and the Cl [1] was 105 meq/L and 102.8 meq/L. For the same compound, the GLC [1] was 185.4 mg/dL and 187.8 mg/dL, the IP [1] was 8.8 mg/dL and 7.4 mg/dL and the K [1] was 5.7 meq/L and 4.3 meq/L. For the same compound, the LDH [1] was 106 IU/L and 240.2 IU/L, the Na [1] was 138.8 meq/L and 140.6 meq/L and the PL [1] was 153.2 mg/dL and 145.8 mg/dL. For the same compound, the RALB [1] was 4 g/dL and 3.4 g/dL, the TBIL [1] was 0.2 mg/dL and 0.1 mg/dL and the TC [1] was 83.2 mg/dL and 72.2 mg/dL. For the same compound, the TG [1] was 84 mg/dL and 116 mg/dL, the TP [1] was 5.9 g/dL and 5.5 g/dL and the gamma-GTP [1] was 1.2 IU/L and 1.4 IU/L. The TERMINAL_BW (1 mg/kg, 3 h, dose level Low) was 199.2 g, the APTT [2] was 17.2 s and the Bas [2] was 0%. For the same compound, the Eos [2] was 0.6%, the Fbg [2] was 222.4 mg/dL and the Hb [2] was 13.3 g/dL. For the same compound, the Ht [2] was 40%, the Lym [2] was 81.2% and the MCH [2] was 21.8 pg. The MCHC [2] was 33.1%, the MCV [2] was 65.7 fL and the Mono [2] was 8.6%. The Neu [2] was 9.8%, the PT [2] was 12.4 s and the Plat [2] was 99.5 x10_4/uL. For the same compound, the RBC [2] was 610 x10_4/ul, the Ret [2] was 9.6% and the WBC [2] was 95.5 x10_2/uL. For the same compound, the KIDNEY_L [3] was 0.9 g, the KIDNEY_R [3] was 0.9 g and the KIDNEY_TOTAL [3] was 1.8 g. It also gave an LIVER (1 mg/kg, 3 h, dose level Low) of 9.5 g, an A/G [4] of 1.7 and an ALP [4] of 1062.4 IU/L. For the same compound, the ALT [4] was 37.4 IU/L, the AST [4] was 68.6 IU/L and the BUN [4] was 11.8 mg/dL. The CRE [4] was 0.5 mg/dL, the Ca [4] was 10.5 mg/dL and the Cl [4] was 105.6 meq/L. The DBIL [4] was 0.018 mg/dL, the GLC [4] was 187.8 mg/dL and the IP [4] was 9 mg/dL. It also gave a K [4] of 4.8 meq/L, an LDH [4] of 100 IU/L and a Na [4] of 137.4 meq/L. For the same compound, the PL [4] was 130.4 mg/dL, the RALB [4] was 3.8 g/dL and the TBIL [4] was 0.3 mg/dL. For the same compound, the TC [4] was 75.6 mg/dL, the TG [4] was 41.8 mg/dL and the TP [4] was 6.1 g/dL. For the same compound, the gamma-GTP [4] was 1.6 IU/L, the TERMINAL_BW (1 mg/kg, 6 h, dose level Low) was 195.5 g and the APTT [5] was 16.7 s. For the same compound, the Bas [5] was 0%, the Eos [5] was 0.6% and the Fbg [5] was 210.6 mg/dL. It also gave a Hb [5] of 13.6 g/dL, a Ht [5] of 41.1% and a Lym [5] of 78.8%. For the same compound, the MCH [5] was 21.8 pg and the MCHC [5] was 33.1%.
